Earlier results, collected in patent US8153661B2, “Controlled delivery system” (Durect Corporation, priority 2004, dated 2012).

## CCCCN1CCCCC1C(=O)Nc1c(C)cccc1C (stereo not shown) [bupivacaine]
  published estimated toxic plasma concentration ranges: 1 to 4 µg/mL
